In patent US11813239B2, “Compositions and methods for improving cardiac structure and/or function” (Wisconsin Alumni Research Foundation, priority 2020, dated 2023):
Entries after “also recorded” stand apart in the source; their conditions may differ.

Test system: adult mouse heart following myocardial infarction
Test: Echocardiography after adult myocardial infarction, malonate from within an hour post-MI for two weeks
Assay type: in vivo
Settings: for % EF (Ejection Fraction) / % FS (Fractional Shortening) / LV Mass (Left Ventricular Mass, Anatomical Weight) / LV Vol; d (Left Ventricular Volume; diastole) / LV Vol; s (Left Ventricular Volume; systole) / LVAWD (Left Ventricle Anterior Wall Thickness Diastole) / LVAWS (Left Ventricle Anterior Wall Thickness Systole) / LVIDD (Left Ventricle Internal Diameter Diastole) / LVIDS (Left Ventricle Internal Diameter Systole) / LVPWD (Left Ventricle Posterior Wall Thickness Diastole) / LVPWS (Left Ventricle Posterior Wall Thickness Systole): adult mice, mean ± SE
[1] = Baseline before surgery and dosing (same values as saline Table 4A)
[2] = MI, 14 DPMI, dimethyl malonate 100 mg/kg intraperitoneally daily for 2 weeks post-MI
[3] = MI, 28 DPMI, dimethyl malonate 100 mg/kg intraperitoneally daily for 2 weeks post-MI
[4] = sham (SH), 14 DPMI, dimethyl malonate 100 mg/kg intraperitoneally daily for 2 weeks
[5] = sham (SH), 28 DPMI, dimethyl malonate 100 mg/kg intraperitoneally daily for 2 weeks

Question: For `COC(=O)CC(=O)OC` [Malonate, dimethyl malonate], which “cardiac function by echocardiography (EF and FS)” value (adult MI, dimethyl malonate 100 mg/kg daily for 2 weeks, 28 days post-MI, vs saline) is on record?
Answer: complete restoration of cardiac function; also recorded: significant improvement of cardiac function

Question: And the “cardiac function by echocardiography” value (adult MI, dimethyl malonate 100 mg/kg daily, 14 days post-MI, vs controls, difference was not significant)?
Answer: trending improvement in cardiac function

Question: What about the “% EF (Ejection Fraction)” value [1] of the same molecule?
Answer: 57.761 ± 0.698%

Question: And the “% FS (Fractional Shortening)” value [1]?
Answer: 29.844 ± 0.434%

Question: And the “LV Mass (Left Ventricular Mass, Anatomical Weight)” value (“LV Mass” for short) [1]?
Answer: 78.043 ± 3.706 mg

Question: And the “LV Vol; d (Left Ventricular Volume; diastole)” value (from here on “LV Vol; d”) [1]?
Answer: 59.761 ± 3.319 µL

Question: What about the “LV Vol; s (Left Ventricular Volume; systole)” value (“LV Vol; s” below) [1] of the same molecule?
Answer: 25.363 ± 1.705 µL

Question: And the “LVAWD (Left Ventricle Anterior Wall Thickness Diastole)” value (shortened to “LVAWD”) [1]?
Answer: 0.641 ± 0.006 mm

Question: What about the “LVAWS (Left Ventricle Anterior Wall Thickness Systole)” value (“LVAWS” for short) [1] of the same molecule?
Answer: 0.767 ± 0.005 mm

Question: What about the “LVIDD (Left Ventricle Internal Diameter Diastole)” value (“LVIDD” below) [1] of the same molecule?
Answer: 3.731 ± 0.086 mm

Question: What about the “LVIDS (Left Ventricle Internal Diameter Systole)” value (shortened to “LVIDS”) [1] of the same molecule?
Answer: 2.619 ± 0.072 mm

Question: And the “LVPWD (Left Ventricle Posterior Wall Thickness Diastole)” value (“LVPWD” for short) [1]?
Answer: 0.639 ± 0.006 mm

Question: And the “LVPWS (Left Ventricle Posterior Wall Thickness Systole)” value (“LVPWS” below) [1]?
Answer: 0.769 ± 0.005 mm

Question: And the “% EF (Ejection Fraction)” value [2]?
Answer: 44.421 ± 5.272%

Question: What about the “% FS (Fractional Shortening)” value [2] of the same molecule?
Answer: 22.034 ± 2.951%

Question: What about the “LV Mass” value [2] of the same molecule?
Answer: 80.024 ± 8.731 mg

Question: And the “LV Vol; d” value [2]?
Answer: 74.738 ± 12.392 µL

Question: And the “LV Vol; s” value [2]?
Answer: 44.249 ± 11.125 µL

Question: What about the “LVAWD” value [2] of the same molecule?
Answer: 0.583 ± 0.015 mm

Question: What about the “LVAWS” value [2] of the same molecule?
Answer: 0.723 ± 0.020 mm

Question: What about the “LVIDD” value [2] of the same molecule?
Answer: 4.047 ± 0.283 mm

Question: And the “LVIDS” value [2]?
Answer: 3.188 ± 0.334 mm

Question: What about the “LVPWD” value [2] of the same molecule?
Answer: 0.578 ± 0.014 mm

Question: What about the “LVPWS” value [2] of the same molecule?
Answer: 0.753 ± 0.016 mm

Question: What about the “% EF (Ejection Fraction)” value [3] of the same molecule?
Answer: 48.940 ± 5.707%

Question: And the “% FS (Fractional Shortening)” value [3]?
Answer: 24.858 ± 3.214%

Question: And the “LV Mass” value [3]?
Answer: 83.201 ± 16.390 mg

Question: What about the “LV Vol; d” value [3] of the same molecule?
Answer: 84.656 ± 22.884 µL

Question: What about the “LV Vol; s” value [3] of the same molecule?
Answer: 47.375 ± 16.164 µL

Question: What about the “LVAWD” value [3] of the same molecule?
Answer: 0.528 ± 0.033 mm

Question: What about the “LVAWS” value [3] of the same molecule?
Answer: 0.693 ± 0.042 mm

Question: And the “LVIDD” value [3]?
Answer: 4.183 ± 0.448 mm

Question: What about the “LVIDS” value [3] of the same molecule?
Answer: 3.193 ± 0.451 mm

Question: What about the “LVPWD” value [3] of the same molecule?
Answer: 0.600 ± 0.020 mm

Question: What about the “LVPWS” value [3] of the same molecule?
Answer: 0.755 ± 0.017 mm

Question: What about the “% EF (Ejection Fraction)” value [4] of the same molecule?
Answer: 52.458 ± 2.795%

Question: What about the “% FS (Fractional Shortening)” value [4] of the same molecule?
Answer: 26.613 ± 1.724%

Question: What about the “LV Mass” value [4] of the same molecule?
Answer: 78.241 ± 13.192 mg

Question: And the “LV Vol; d” value [4]?
Answer: 71.304 ± 10.106 µL

Question: And the “LV Vol; s” value [4]?
Answer: 33.993 ± 5.072 µL

Question: What about the “LVAWD” value [4] of the same molecule?
Answer: 0.575 ± 0.045 mm

Question: And the “LVAWS” value [4]?
Answer: 0.723 ± 0.047 mm

Question: And the “LVIDD” value [4]?
Answer: 4.005 ± 0.234 mm

Question: And the “LVIDS” value [4]?
Answer: 2.940 ± 0.188 mm

Question: What about the “LVPWD” value [4] of the same molecule?
Answer: 0.575 ± 0.035 mm

Question: What about the “LVPWS” value [4] of the same molecule?
Answer: 0.733 ± 0.046 mm

Question: What about the “% EF (Ejection Fraction)” value [5] of the same molecule?
Answer: 48.208 ± 3.686%

Question: What about the “% FS (Fractional Shortening)” value [5] of the same molecule?
Answer: 24.032 ± 2.173%

Question: And the “LV Mass” value [5]?
Answer: 82.315 ± 5.106 mg

Question: What about the “LV Vol; d” value [5] of the same molecule?
Answer: 68.006 ± 5.647 µL

Question: And the “LV Vol; s” value [5]?
Answer: 35.538 ± 4.993 µL

Question: And the “LVAWD” value [5]?
Answer: 0.623 ± 0.014 mm

Question: What about the “LVAWS” value [5] of the same molecule?
Answer: 0.755 ± 0.010 mm

Question: And the “LVIDD” value [5]?
Answer: 3.940 ± 0.137 mm

Question: And the “LVIDS” value [5]?
Answer: 2.998 ± 0.170 mm

Question: And the “LVPWD” value [5]?
Answer: 0.618 ± 0.013 mm

Question: What about the “LVPWS” value [5] of the same molecule?
Answer: 0.753 ± 0.013 mm
